Here are results for four molecules from patent publication US11707440B2 (priority 2017, dated 2023).

By Cmax is commonly meant the maximum level reached in the sampled fluid or tissue.

Series [1] in a line: Pharmacokinetics of intranasal esketamine in healthy subjects (Example 9). As to conditions: for Metabolite/Parent Ratio AUClast / Metabolite/Parent Ratio AUC∞ / Metabolite/Parent Ratio tmax / AUClast / AUC∞ / Cmax / t1/2: mean; for tmax: median. The procedure:
Pharmacokinetic blood samples for measurement of esketamine and noresketamine concentrations in plasma were collected from predose until up to 24 hours after each intranasal esketamine regimen on Day 1 of each period.
Blood samples (4 mL each) for determination of esketamine and noresketamine plasma concentrations were collected into the appropriate collection tube (e.g., Vacutainer®) at timepoints 0.00, 0.12, 0.20, 0.37, 0.53, 0.67, 0.83, 1.00, 1.25, 1.50, 2.00, 3.00, 4.00, 6.00, 9.00, 12.00, 18.00, and 24.00 h. The total amount of blood to be drawn for clinical laboratory tests and PK evaluations is approximately 327 mL.
Plasma samples were analyzed for esketamine and noresketamine concentrations using the validated, specific and sensitive liquid chromatography coupled to tandem mass spectrometry (LC-MS/MS) achiral method of Example 8.
Serial PK blood samples (4 mL each) were collected for a 24-hour period from each subject (Periods 1, 2, and 3). […] Statistical Methods 1.6.4.1. Sample Size
The following key parameters of esketamine and noresketamine in plasma were calculated using noncompartmental methods and actual sampling times: Cmax, tmax, AUClast, AUC∞, t1/2,λ, and λz.

For series [2], the system named is MDD/TRD subjects. As to conditions: 52-week safety study in MDD/TRD subjects (Berman et al., 2011); cited from earlier work.
For series [3] the following is noted: for Stock solution stability: stock solutions. The text has this: This example provides an LC-MS/MS method for the determination of ketamine and norketamine in sodium heparin human plasma using ketamine-d4 and norketamine-d4 as the respective internal standards (IS).
[4] abbreviates: after A: Esketamine 28 mg intranasal.
The mark [5] stands for this setting: after B: Esketamine 56 mg intranasal.
Setting [6] is: after C: Esketamine 84 mg intranasal.
The mark [7] stands for this setting: healthy subjects, 28, 56 and 84 mg.
[8] abbreviates: metabolite after A: Esketamine 28 mg intranasal.
The mark [9] stands for this setting: metabolite after B: Esketamine 56 mg intranasal.
Where [10] appears, read: metabolite after C: Esketamine 84 mg intranasal.

Where two headings read alike, the source gives them in different places. Marks after values point to notes of the source that are not given here.

On to `N[C@]1(c2ccccc2Cl)CCCCC1=O` [noresketamine], for which, in series [1] (setting [4]), the “Metabolite/Parent Ratio AUClast” value amounted to 3.62, the “Metabolite/Parent Ratio AUC∞” value was 3.80^b and the “Metabolite/Parent Ratio tmax” value is listed as 1.96 h. Also, in series [1] (setting [5]), the “Metabolite/Parent Ratio AUClast” value is on record as 4.07, the “Metabolite/Parent Ratio AUC∞” value was 4.22^b and the “Metabolite/Parent Ratio tmax” value was found to be 2.28 h. For the same molecule, in series [1] (setting [6]), the “Metabolite/Parent Ratio AUClast” value was found to be 4.32, the “Metabolite/Parent Ratio AUC∞” value was 4.46^d and the “Metabolite/Parent Ratio tmax” value came out at 2.55 h. In series [1] (setting [7]), the “AUC (AUClast and AUC∞) variability, range” value is listed as 17.0% to 21.3; the “AUClast, mean ratio of noresketamine to esketamine, range” value is 3.62 to 4.32; the “AUC∞, mean ratio of noresketamine to esketamine, range” value was in the range of 3.80 to 4.46; the “Cmax variability (percent coefficient of variation), range across treatment groups” value was 25.8% to 33.7. In series [1] (setting [7]), the “Cmax, mean ratio of noresketamine to esketamine, range” value is listed as 1.96 to 2.55 and the “Mean t1/2, range” value was 7.48 to 7.74 h. In addition, the “Median tmax, range across the 3 intranasal regimens” value in series [1] (healthy subjects, 28, 56 and 84 mg intranasal esketamine) was in the range of 1.25 to 1.5 h. Moreover, in series [1] (setting [8]), the AUClast stood at 454 ng·h/mL, the “AUC∞” value is listed as 508^ h * ng/mL, the Cmax is 92.8 ng/mL and the t1/2 was determined as 7.74 h. Moreover, the tmax in series [1] (setting [8]) turned out to be 1.25 h. Moreover, in series [1] (setting [9]), the AUClast stood at 851 ng·h/mL, the “AUC∞” value is given as 924^c h * ng/mL, the Cmax was 154 ng/mL and the t1/2 is recorded as 7.71^c h. Further, the tmax in series [1] (setting [9]) was found to be 1.50 h. In series [1] (setting [10]), the AUClast turned out to be 1287 ng·h/mL, the “AUC∞” value was 1392^b h * ng/mL, the Cmax worked out at 241 ng/mL and the t1/2 is listed as 7.48^b h. The tmax in series [1] (setting [10]) is 1.50 h.
As for `OCCOCCN1CCN(C2=Nc3ccccc3Sc3ccccc32)CC1` [quetiapine], the “Discontinuation rate due to adverse events” value in series [2] is 23.7%.
For `CN[C@]1(c2ccccc2Cl)CCCCC1=O` [5-Ketamine], the “QC sample long-term storage stability” value in series [3] (human plasma, −20° C.) was found to be 707 days at −20 °C.
Consider `NC1(c2ccccc2Cl)CCCCC1=O` (stereo not drawn) [Norketamine], for which the results for the “QC sample freeze/thaw stability” value in series [3] (freeze (−20° C.)/thaw (ice-water bath)) and in series [3] (freeze (−20° C.)/thaw (room temperature)) were 3 freeze (−20° C.)/thaw (ice-water bath) cycles and 3 freeze (−20° C.)/thaw (room temperature) cycles, respectively. Moreover, in series [3] (human plasma, room temperature), the “QC sample bench-top stability” value amounted to 68.5 hours at room temp. The “QC sample long-term storage stability” value in series [3] (human plasma, −20° C.) was determined as 1552 days at −20 °C. For the same molecule, the Processed sample stability in series [3] (room temperature) stood at 146.5 hours at room temperature. Also, the “Whole Blood Stability” value in series [3] (room temperature and ice-water bath (0-4° C.)) is 120 minutes at room temperature and in an ice-water bath. For the same molecule, the “Stock solution stability (spike solutions)” value in series [3] (spike solutions, −20° C.) was 610 days at −20 °C for ketamine/norketamine spike solutions. Further, the figures for the Stock solution stability in series [3] (room temperature under white light) and in series [3] (−20° C.) were 6 h and 15100 h, respectively.
